Counter-ions that a name gives are not always drawn.
Assays:
[1] = test system: isolated rat heart (myocardium); assay: Ischemia-reperfusion sequence on isolated rat heart (contractile function and myocytic energetic metabolic response, 31P NMR); details: 5×10^-6 M; for intracellular pH at the end of the ischemia: control falls from pH 7.2 to pH 6.0
Experimental: Study of the compounds of the invention on the contractile function of the myocardium and on the myocytic energetic metabolic response in the course of an ischemia-reinfusion sequence (isolated rat heart).
This study was carried out by means of the use of ^31 P NMR spectroscopy, this technique allowing the monitoring, on an isolated and infused heart, of the variation in the contents of phosphorylated compounds (ATP, phosphocreatine, inorganic phosphate) and in the intracellular pH. It allows continuous investigation of a number of variables linked with the energetic state of the myocardium and allows a comparative evaluation of the antiischemic properties of several products.
The isolated rat heart is infused aortically at a constant pressure (100 cm of water) for 30 min. and is then subjected to a partial global ischemia (coronary output reduced to 1.3% of the initial output) for 24 min., and, lastly, the heart is reinfused at constant pressure for 30 min.
Throughout the experiment, NMR spectra corresponding to 3-minute-long acquisitions are recorded. After statistical exploitation, they serve to determine the intracardial concentration of ATP, of phosphocreatine (PC) and of inorganic phosphate (Pi), as well as to evaluate the intracellular pH.
This procedure is intended to assess the effect of the presence of the product before and during the ischemia. To this end, the product is administered in the infusion medium after normoxic infusion for 20 min; it remains present in the infusion solution throughout the remainder of the experiment. A concentration of 5×10^-6 M was chosen for this comparative study.
This is intended to evaluate the effects of the products on the heart function. The heart is infused under the conditions defined above, and a catheter connected to a pressure sensor is introduced into the left ventrical (via the atrium) in order to monitor the pressure changes developed by the LV. The heart rate and the heart output are also monitored.
This is carried out in a superconducting magnet of 5.9 T in order to record the ^31 P NMR spectra. This series of experiments is intended to evaluate the impact of the product on the energetic equilibrium of the myocardium both in normoxia, in ischemia and in reinfusion.

[2] = test system: mitochondrial ATP synthesis (isolated rat liver mitochondria); assay: Mitochondrial energy (ATP) production during experimental calcium overload (cyclosporin A), isolated rat liver mitochondria; assay type: biochemical; details: 1×10^-6 M
Experimental: Briefly, the mitochondria are extracted from rat livers. Mitochondrial respiration (1.5 mg of proteins placed in a reaction chamber) is brought about by the addition of sodium succinate, which is used as substrate (at 6×10^-4 M) and oxidative phosphorylation is triggered by the addition of ADP to the survival medium up to a final concentration of 1×10^-5 M. By recording the rates of oxygen consumption (in nmol/min./mg of mitochondrial protein) it is possible to calculate the characteristic parameters of the mitochondrial energy synthesis in the form of ATP.

[3] = test system: blood/brain barrier model (monolayer of cerebral capillary endothelial cells cocultured with astrocytes); assay: Ability to cross the blood/brain barrier, endothelial cell/astrocyte coculture model; assay type: in vitro ADME; details: concluded from the coefficient of permeability
Experimental: (§1) In order to study the functions of cerebral capillaries "in vitro", we developed a coculture model which allows the "in vivo" situation to be recreated. The endothelial cells of capillaries and astrocytes are cultured on either side of a filter.
(§2) The endothelial cells are cultured in the upper compartment on the filter and the astrocytes in the lower compartment on the bottom of the Petri dish.
(§3) On the day of the experiment, a solution of Ringer-HEPES (150 mM NaCl; 5.2 mM KCl; 2.2 mM CaCl2; 0.2 mM MgCl2 ·6H2 O; 6 mM NaHCO3; 5 mM HEPES; 2.8 mM glucose) is placed in the lower compartment of a 6-well dish (3 ml per well). A filter of covered with a monolayer of endothelial cells is transferred into the first well of the 6-well dish. 2 ml of the Ringer-HEPES solution containing the test compound are placed in the upper compartment of the filter. […] The experiments are performed in triplicate with filters covered with a monolayer of endothelial cells from cerebral capillaries or of collagen alone as control. They are agitated at 37° C. throughout the experiment.
(§4) In the graph clearance=f(t), measurement of the slope gives the value "PSt" where PS=permeability×surface area of the monolayer (in μl/min) for the filters covered with cerebral capillary endothelial cells. "PSf" is calculated in the same way for the control filters. The permeability for the monolayer of endothelial cells alone (PSe) is given by: [formula]
(§5) The coefficient of endothelial permeability "Pe" is calculated by dividing "PSe" by the surface area of the monolayer of endothelial cells. "Pe" is expressed in "cm/min".

[4] = as above; assay type: in vitro ADME; details: in vitro coculture model, 37° C.; read-out: coefficient of permeability of the blood/brain barrier (Pe) (converted)
Experimental: as §1, §2, §3, §4, §5

| penetration into the brain (in words) [3] | Papp [4] [nm/s] | Structure (SMILES) | cytoprotective effect during an ischemia-reinfusion sequence of the myocardium, compared with trimetazidine [1] | effect on the intracellular acidosis induced by the ischemia [1] | intracellular pH at the end of the ischemia [1] | restoration of mitochondrial ATP synthesis [2] [%] |
| --- | --- | --- | --- | --- | --- | --- |
| penetrate the brain very easily | > 167 | CCN1CCN(Cc2ccc(OC)c(OC)c2OC(=O)[C@@H]2C[C@H]2c2ccccc2)CC1 (relative stereo) [Example 1, N-(3,4-Dimethoxy-2-E-phenylcyclopropylcarbonyloxy)benzyl-N'-ethylpiperazinedihydrochloride] | greatly increased | particularly pronounced | 6.5 | 100 |
| penetrate the brain very easily | > 167 | COc1ccc(CN2CCN(Cc3ccccc3)CC2)c(OC(=O)[C@@H]2C[C@H]2c2ccccc2)c1OC (relative stereo) [Example 2, N-(3,4-Dimethoxy-2-E-phenylcyclopropylcarbonyloxy)benzyl-N'-benzylpiperazine dihydrochloride] |  |  |  |  |
| penetrate the brain very easily | > 167 | CCN1CCN(Cc2ccc(OC)c(OC)c2OC(=O)[C@@H]2C[C@H]2c2ccccc2)CC1 [Example 17, N-(3,4-Dimethoxy-2-E-(R,R)-phenylcyclopropylcarbonyloxy)benzyl-N'-ethylpiperazine dihydrochloride] |  |  |  |  |
| penetrate the brain very easily | > 167 | CCN1CCN(Cc2ccc(OC)c(OC)c2OC(=O)[C@H]2C[C@@H]2c2ccccc2)CC1 [Example 19, N-(3,4-Dimethoxy-2-E-(S,S)-phenylcyclopropylcarbonyloxy)benzyl-N'-ethylpiperazine dihydrochloride] |  |  |  |  |

| Structure (SMILES) | penetration into the brain (in words) [3] | Papp [4] [nm/s] | cytoprotective effect during an ischemia-reinfusion sequence of the myocardium, compared with trimetazidine [1] | effect on the intracellular acidosis induced by the ischemia [1] | intracellular pH at the end of the ischemia [1] | restoration of mitochondrial ATP synthesis [2] [%] |
| --- | --- | --- | --- | --- | --- | --- |
| COc1ccc(CN2CCNCC2)c(OC)c1OC [trimetazidine, 2,3,4-trimethoxybenzylpiperazine, reference compound] | penetrates poorly into the brain | 70 |  |  | 6.35 |  |
